Measurements published in patent US20090118274A1, “MONOCYCLIC AMINOPROPYL TETRAHYDRO-PYRAZOLO-PYRIDINE MODULATORS OF CATHEPSIN S” (priority 2007, published 2009).

These compounds were tested against T1, Recombinant human cathepsin S (CatS) (Homo sapiens, UniProt P25774) (assay: Recombinant human cathepsin S (CatS) fluorogenic substrate inhibition assay). Settings: not given.
T1 construct: made in house
Format: biochemical
Procedure: Recombinant human cathepsin S (CatS) was expressed in the baculovirus system and purified in one step with a thiopropyl-sepharose column. […] The assay is run in 150 mM sodium acetate pH 5.0 containing 1.5 mM DTT and 150 mM NaCl. […] Measurements are taken every min for 20 min. The rate is calculated from the slope of the increase in fluorescence and the percent inhibition is calculated from this.

T1 sequence (P25774 115-331): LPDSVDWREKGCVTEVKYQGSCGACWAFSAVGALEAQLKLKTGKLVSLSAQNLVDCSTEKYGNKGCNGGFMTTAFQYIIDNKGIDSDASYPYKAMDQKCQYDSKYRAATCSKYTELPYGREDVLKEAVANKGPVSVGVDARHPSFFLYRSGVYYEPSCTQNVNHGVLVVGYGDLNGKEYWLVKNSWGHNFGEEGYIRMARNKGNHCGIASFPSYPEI

Compound | IC50
CN1CCN(CC(O)Cn2nc(-c3ccc(C(F)(F)F)c(CNC(=O)c4ccc(F)cc4)c3)c3c2CCN(S(C)(=O)=O)C3)CC1 (stereo not drawn) [Example 227, 4-Fluoro-N-(5-{1-[2-hydroxy-3-(4-methyl-piperazin-1-yl)-propyl]-5-methanesulfonyl-4,5,6,7-tetrahydro-1H-pyrazolo[4,3-c]pyridin-3-yl}-2-trifluoromethyl-benzyl)-benzamide] | 760 nM
CS(=O)(=O)N1CCc2c(c(-c3ccc(C(F)(F)F)c(CNC(=O)c4ccc(F)cc4)c3)nn2CC(O)CN2CCC(C(N)=O)CC2)C1 (stereo not drawn) [Example 18, 1-[3-(3-[3-[(4-Fluoro-benzoylamino)-methyl]-4-trifluoromethyl-phenyl]-5-methanesulfonyl-4,5,6,7-tetrahydro-pyrazolo[4,3-c]pyridin-1-yl)-2-hydroxy-propyl]-piperidine-4-carboxylic acid amide] | 70 nM

Same assay, conditions: average of results obtained; substrate Z-Valine-Valine-Arginine-AMC 10 μM, pH 5.0; read-out: CatS IC50

Compound | IC50
CS(=O)(=O)N1CCc2c(c(-c3ccc(C(F)(F)F)c(CNC(=O)c4cccc(F)c4)c3)nn2CC(O)CN2CCCC2)C1 (stereo not drawn) [Example 215, 3-Fluoro-N-{5-[1-(2-hydroxy-3-pyrrolidin-1-yl-propyl)-5-methanesulfonyl-4,5,6,7-tetrahydro-1H-pyrazolo[4,3-c]pyridin-3-yl]-2-trifluoromethyl-benzyl}-benzamide] | 580 nM
Cc1nc2ccccc2c(=O)n1Cc1cc(-c2nn(CCCN3CCC4(CCNC4=O)CC3)c3c2CN(S(C)(=O)=O)CC3)ccc1C(F)(F)F [Example 174, 3-(5-{5-Methanesulfonyl-1-[3-(1-oxo-2,8-diaza-spiro[4.5]dec-8-yl)-propyl]-4,5,6,7-tetrahydro-1H-pyrazolo[4,3-c]pyridin-3-yl}-2-trifluoromethyl-benzyl)-2-methyl-3H-quinazolin-4-one] | 13500 nM
CS(=O)(=O)N1CCc2c(c(-c3ccc(Cl)c(CNC(=O)c4ccccc4)c3)nn2CC(O)CN2CCOCC2)C1 (stereo not drawn) [Example 220, N-{2-Chloro-5-[1-(2-hydroxy-3-morpholin-4-yl-propyl)-5-methanesulfonyl-4,5,6,7-tetrahydro-1H-pyrazolo[4,3-c]pyridin-3-yl]-benzyl}-benzamide] | 650 nM
Cc1ccc(C(=O)NCc2cc(-c3nn(CC(O)CN4CCCC4)c4c3CN(S(C)(=O)=O)CC4)ccc2C(F)(F)F)cc1 (stereo not drawn) [Example 214] | 580 nM
CS(=O)(=O)N1CCc2c(c(-c3ccc(Cl)c(CNC(=O)c4ccccc4)c3)nn2CC(O)CN2CCCC2)C1 (stereo not drawn) [Example 69, N-{2-Chloro-5-[1-(2-hydroxy-3-pyrrolidin-1-yl-propyl)-5-methanesulfonyl-4,5,6,7-tetrahydro-1H-pyrazolo[4,3-c]pyridin-3-yl]-benzyl}-benzamide] | 500 nM
CS(=O)(=O)N1CCc2c(c(-c3ccc(C(F)(F)F)c(CNc4ncccn4)c3)nn2CC(O)CN2CCCC2)C1 (stereo not drawn) [Example 65, 1-{5-Methanesulfonyl-3-[3-(pyrimidin-2-ylaminomethyl)-4-trifluoromethyl-phenyl]-4,5,6,7-tetrahydro-pyrazolo[4,3-c]pyridin-1-yl}-3-pyrrolidin-1-yl-propan-2-ol] | 16600 nM
CS(=O)(=O)N1CCc2c(c(-c3ccc(C(F)(F)F)c(CNC(=O)c4ccccc4F)c3)nn2CC(O)CN2CCCC2)C1 (stereo not drawn) [Example 161, 2-Fluoro-N-{5-[1-(2-hydroxy-3-pyrrolidin-1-yl-propyl)-5-methanesulfonyl-4,5,6,7-tetrahydro-1H-pyrazolo[4,3-c]pyridin-3-yl]-2-trifluoromethyl-benzyl}-benzamide] | 370 nM
CS(=O)(=O)N1CCc2c(c(-c3ccc(Cl)c(CC(=O)Nc4ccccc4)c3)nn2CCCN2CCOCC2)C1 [Example 291, 2-{2-Chloro-5-[5-methanesulfonyl-1-(3-morpholin-4-yl-propyl)-4,5,6,7-tetrahydro-1H-pyrazolo[4,3-c]pyridin-3-yl]-phenyl}-N-phenyl-acetamide] | 2850 nM
CS(=O)(=O)N1CCc2c(c(-c3ccc(C(F)(F)F)c(CNC(=O)c4ccc(F)cc4)c3)nn2CC(O)CN2CNC(=O)C2)C1 (stereo not drawn) [Example 171, 4-Fluoro-N-(5-{1-[2-hydroxy-3-(4-oxo-imidazolidin-1-yl)-propyl]-5-methanesulfonyl-4,5,6,7-tetrahydro-1H-pyrazolo[4,3-c]pyridin-3-yl}-2-trifluoromethyl-benzyl)-benzamide] | 600 nM
CC(C)=CC(=O)NCc1cc(-c2nn(CC(O)CN3CCC(N(C)C)CC3)c3c2CN(S(C)(=O)=O)CC3)ccc1C(F)(F)F (stereo not drawn) [Example 34, 3-Methyl-but-2-enoic acid 5-{1-[3-(4-dimethylamino-piperidin-1-yl)-2-hydroxy-propyl]-5-methanesulfonyl-4,5,6,7-tetrahydro-1H-pyrazolo[4,3-c]pyridin-3-yl}-2-trifluoromethyl-benzylamide] | 260 nM
Cc1cc(C(=O)NCc2cc(-c3nn(CC(O)CN4CCCC4)c4c3CN(S(C)(=O)=O)CC4)ccc2C(F)(F)F)ccc1F (stereo not drawn) [Example 96, 4-Fluoro-N-{5-[1-(2-hydroxy-3-pyrrolidin-1-yl-propyl)-5-methanesulfonyl-4,5,6,7-tetrahydro-1H-pyrazolo[4,3-c]pyridin-3-yl]-2-trifluoromethyl-benzyl}-3-methyl-benzamide] | 240 nM
CS(=O)(=O)N1CCc2c(c(-c3ccc(C(F)(F)F)c(CNC(=O)c4ccccc4Cl)c3)nn2CC(O)CN2CCCC2)C1 (stereo not drawn) [Example 62, 2-Chloro-N-{5-[1-(2-hydroxy-3-pyrrolidin-1-yl-propyl)-5-methanesulfonyl-4,5,6,7-tetrahydro-1H-pyrazolo[4,3-c]pyridin-3-yl]-2-trifluoromethyl-benzyl}-benzamide] | 220 nM
CS(=O)(=O)N1CCc2c(c(-c3ccc(C(F)(F)F)c(CNC(=O)c4ccc(F)cc4)c3)nn2CC(O)CN2CCOCC2)C1 (stereo not drawn) [Example 23, 4-Fluoro-N-{5-[1-(2-hydroxy-3-morpholin-4-yl-propyl)-5-methanesulfonyl-4,5,6,7-tetrahydro-1H-pyrazolo[4,3-c]pyridin-3-yl]-2-trifluoromethyl-benzyl}-benzamide] | 150 nM
CC(C)N1CCN(CC(O)Cn2nc(-c3ccc(C(F)(F)F)c(CNC(=O)c4ccc(F)cc4)c3)c3c2CCN(S(C)(=O)=O)C3)CC1 (stereo not drawn) [Example 20, 4-Fluoro-N-(5-{1-[2-hydroxy-3-(4-isopropyl-piperazin-1-yl)-propyl]-5-methanesulfonyl-4,5,6,7-tetrahydro-1H-pyrazolo[4,3-c]pyridin-3-yl}-2-trifluoromethyl-benzyl)-benzamide] | 400 nM

More lines, now with the values ahead:

IC50 | Compound
30 nM | CC(C)=CC(=O)NCc1cc(-c2nn(CC(O)CN3CCC(NS(C)(=O)=O)CC3)c3c2CN(S(C)(=O)=O)CC3)ccc1C(F)(F)F (stereo not drawn) [Example 269, 3-Methyl-but-2-enoic acid 5-{1-[2-hydroxy-3-(4-methanesulfonylamino-piperidin-1-yl)-propyl]-5-methanesulfonyl-4,5,6,7-tetrahydro-1H-pyrazolo[4,3-c]pyridin-3-yl}-2-trifluoromethyl-benzylamide]
30 nM | CCOC(=O)C1CCN(CC(O)Cn2nc(-c3ccc(C(F)(F)F)c(CNC(=O)c4ccc(F)cc4)c3)c3c2CCN(S(C)(=O)=O)C3)CC1 (stereo not drawn) [Example 103, 1-[3-(3-{3-[(4-Fluoro-benzoylamino)-methyl]-4-trifluoromethyl-phenyl}-5-methanesulfonyl-4,5,6,7-tetrahydro-pyrazolo[4,3-c]pyridin-1-yl)-2-hydroxy-propyl]-piperidine-4-carboxylic acid ethyl ester]
30 nM | CC(C)=CC(=O)NCc1cc(-c2nn(CC(O)CN3CCC(C(C)(C)C)CC3)c3c2CN(S(C)(=O)=O)CC3)ccc1C(F)(F)F (stereo not drawn) [Example 273, 3-Methyl-but-2-enoic acid 5-{1-[3-(4-tert-butyl-piperidin-1-yl)-2-hydroxy-propyl]-5-methanesulfonyl-4,5,6,7-tetrahydro-1H-pyrazolo[4,3-c]pyridin-3-yl}-2-trifluoromethyl-benzylamide]
90 nM | CC(C)CC(=O)NCc1cc(-c2nn(CC(O)CN3CCC(C(C)(C)C)CC3)c3c2CN(S(C)(=O)=O)CC3)ccc1C(F)(F)F (stereo not drawn) [Example 289, N-(5-{1-[3-(4-tert-Butyl-piperidin-1-yl)-2-hydroxy-propyl]-5-methanesulfonyl-4,5,6,7-tetrahydro-1H-pyrazolo[4,3-c]pyridin-3-yl}-2-trifluoromethyl-benzyl)-3-methyl-butyramide]
70 nM | CS(=O)(=O)N1CCc2c(c(-c3ccc(Cl)c(CNC(=O)c4ccc(F)cc4)c3)nn2CC(O)CN2CCC(C(N)=O)CC2)C1 (stereo not drawn) [Example 12, 1-[3-(3-{4-Chloro-3-[(4-fluoro-benzoylamino)-methyl]-phenyl}-5-methanesulfonyl-4,5,6,7-tetrahydro-pyrazolo[4,3-c]pyridin-1-yl)-2-hydroxy-propyl]-piperidine-4-carboxylic acid amide]
30 nM | CC(C)(C)OC(=O)NC1CCN(CC(O)Cn2nc(-c3ccc(Cl)c(CNC(=O)c4ccc(F)cc4)c3)c3c2CCN(S(C)(=O)=O)C3)CC1 (stereo not drawn) [Example 78, {1-[3-(3-{4-Chloro-3-[(4-fluoro-benzoylamino)-methyl]-phenyl}-5-methanesulfonyl-4,5,6,7-tetrahydro-pyrazolo[4,3-c]pyridin-1-yl)-2-hydroxy-propyl]-piperidin-4-yl}-carbamic acid tert-butyl ester]
100 nM | CC1CCN(CC(O)Cn2nc(-c3ccc(C(F)(F)F)c(CNC(=O)c4ccc(F)cc4)c3)c3c2CCN(S(C)(=O)=O)C3)CC1 (stereo not drawn) [Example 22, 4-Fluoro-N-(5-{1-[2-hydroxy-3-(4-methyl-piperidin-1-yl)-propyl]-5-methanesulfonyl-4,5,6,7-tetrahydro-1H-pyrazolo[4,3-c]pyridin-3-yl}-2-trifluoromethyl-benzyl)-benzamide]
50 nM | CC(=O)NC1CCN(CC(O)Cn2nc(-c3ccc(C(F)(F)F)c(CNC(=O)c4ccc(F)cc4)c3)c3c2CCN(S(C)(=O)=O)C3)CC1 (stereo not drawn) [Example 140, N-(5-{1-[3-(4-Acetylamino-piperidin-1-yl)-2-hydroxy-propyl]-5-methanesulfonyl-4,5,6,7-tetrahydro-1H-pyrazolo[4,3-c]pyridin-3-yl}-2-trifluoromethyl-benzyl)-4-fluoro-benzamide]
